Assay results reported in patent US20100184699A1, “Peptide Derived From Prostate-Related Protein As Cancer Vaccine Candidate For Prostate Cancer Patient Who Is Positive For Hla-A3 Super-Type Allele Molecule” (priority 2005, published 2010).

System: peptide-specific IgG in plasma of prostate cancer patients and healthy donors
Assay: Detection of peptide-specific IgG in plasma by ELISA
Type: binding, human
Conditions: for IgG reactive to peptide in plasma: 1:100-diluted plasma
[1] = Prostate cancer patient 12, A11
[2] = Prostate cancer patient 16, A33
[3] = Prostate cancer patient 20, A33

Substance	IgG reactive to peptide in plasma, Total (positive/tested) (Healthy donors)	IgG reactive to peptide in plasma (Prostate cancer patient 9, A11)	IgG reactive to peptide in plasma [3]	IgG reactive to peptide in plasma, Total (positive/tested) (Prostate cancer patients)	also measured
HIHSTNEVTR (PSMA 345-354) [PSMA-derived peptide]	0/9	+ (IgG reactive to a corresponding peptide was judged to be positive when a difference of the optical density (OD) in a 1:100-diluted plasma was more than 100)	+ (IgG reactive to a corresponding peptide was judged to be positive when a difference of the optical density (OD) in a 1:100-diluted plasma was more than 100)	11/20	IgG reactive to peptide in plasma (Prostate cancer patient 2, A31): + (IgG reactive to a corresponding peptide was judged to be positive when a difference of the optical density (OD) in a 1:100-diluted plasma was more than 100); IgG reactive to peptide in plasma (Prostate cancer patient 4, A31): + (IgG reactive to a corresponding peptide was judged to be positive when a difference of the optical density (OD) in a 1:100-diluted plasma was more than 100); IgG reactive to peptide in plasma (Prostate cancer patient 5, A31): + (IgG reactive to a corresponding peptide was judged to be positive when a difference of the optical density (OD) in a 1:100-diluted plasma was more than 100); IgG reactive to peptide in plasma (Prostate cancer patient 6, A31): + (IgG reactive to a corresponding peptide was judged to be positive when a difference of the optical density (OD) in a 1:100-diluted plasma was more than 100); IgG reactive to peptide in plasma [1]: + (IgG reactive to a corresponding peptide was judged to be positive when a difference of the optical density (OD) in a 1:100-diluted plasma was more than 100); IgG reactive to peptide in plasma (Prostate cancer patient 13, A11): + (IgG reactive to a corresponding peptide was judged to be positive when a difference of the optical density (OD) in a 1:100-diluted plasma was more than 100); IgG reactive to peptide in plasma [2]: + (IgG reactive to a corresponding peptide was judged to be positive when a difference of the optical density (OD) in a 1:100-diluted plasma was more than 100); IgG reactive to peptide in plasma (Prostate cancer patient 17, A33): + (IgG reactive to a corresponding peptide was judged to be positive when a difference of the optical density (OD) in a 1:100-diluted plasma was more than 100); IgG reactive to peptide in plasma (Prostate cancer patient 19, A33): + (IgG reactive to a corresponding peptide was judged to be positive when a difference of the optical density (OD) in a 1:100-diluted plasma was more than 100)
HYELGEYIR (PAP 78-86) [PAP-derived peptide]	1/9			1/20	IgG reactive to peptide in plasma (Healthy donor 3, A31): + (IgG reactive to a corresponding peptide was judged to be positive when a difference of the optical density (OD) in a 1:100-diluted plasma was more than 100); IgG reactive to peptide in plasma (Prostate cancer patient 14, A33): + (IgG reactive to a corresponding peptide was judged to be positive when a difference of the optical density (OD) in a 1:100-diluted plasma was more than 100)
LYLPFRNCPR (PAP 154-163) [PAP-derived peptide]	0/9	+ (IgG reactive to a corresponding peptide was judged to be positive when a difference of the optical density (OD) in a 1:100-diluted plasma was more than 100)		3/20	IgG reactive to peptide in plasma (Prostate cancer patient 10, A11): + (IgG reactive to a corresponding peptide was judged to be positive when a difference of the optical density (OD) in a 1:100-diluted plasma was more than 100); IgG reactive to peptide in plasma [2]: + (IgG reactive to a corresponding peptide was judged to be positive when a difference of the optical density (OD) in a 1:100-diluted plasma was more than 100)
LYTKVVHYR (PSA 242-250) [PSA-derived peptide]	0/9			0/20	
PAP 18-28 (FLFLLFFWLDR; UniProt P15309 18-28, looked up, fragment)	1/9			0/20	IgG reactive to peptide in plasma (Healthy donor 12, A31): + (IgG reactive to a corresponding peptide was judged to be positive when a difference of the optical density (OD) in a 1:100-diluted plasma was more than 100)
PSMA 247-265 (NLPGGGVQRGNILNLNGAG; UniProt Q04609 247-265, looked up, fragment)	0/9	+ (IgG reactive to a corresponding peptide was judged to be positive when a difference of the optical density (OD) in a 1:100-diluted plasma was more than 100)	+ (IgG reactive to a corresponding peptide was judged to be positive when a difference of the optical density (OD) in a 1:100-diluted plasma was more than 100)	6/20	IgG reactive to peptide in plasma (Prostate cancer patient 6, A31): + (IgG reactive to a corresponding peptide was judged to be positive when a difference of the optical density (OD) in a 1:100-diluted plasma was more than 100); IgG reactive to peptide in plasma (Prostate cancer patient 8, A11): + (IgG reactive to a corresponding peptide was judged to be positive when a difference of the optical density (OD) in a 1:100-diluted plasma was more than 100); IgG reactive to peptide in plasma [1]: + (IgG reactive to a corresponding peptide was judged to be positive when a difference of the optical density (OD) in a 1:100-diluted plasma was more than 100)
PSMA 370-378 (RYVILGGHR; PSMA 370-378)	0/9		+ (IgG reactive to a corresponding peptide was judged to be positive when a difference of the optical density (OD) in a 1:100-diluted plasma was more than 100)	2/20	IgG reactive to peptide in plasma (Prostate cancer patient 5, A31): + (IgG reactive to a corresponding peptide was judged to be positive when a difference of the optical density (OD) in a 1:100-diluted plasma was more than 100)
